Data reported in DBAASP.
Converted amounts (≈) assume the structure as drawn.

Columns and labels:
Experiment in all cases: ≥ marks a high value that may be exact or a test limit, other limits are often not marked, values filed in µg/mL are converted to µM
[1] = test system: Salmonella typhimurium SL1344
[2] = test system: Shigella flexneri ATCC 12022
[3] = test system: Staphylococcus aureus ATCC 29213
Escherichia coli = test system: Escherichia coli
[4] = test system: Escherichia coli ATCC 35218
[5] = test system: Pseudomonas aeruginosa XJ75315
[6] = test system: Escherichia coli ATCC 25922
[7] = test system: Klebsiella pneumoniae XJ75297
[8] = test system: Staphylococcus epidermidis
[9] = test system: Pseudomonas aeruginosa ATCC 27853
[10] = test system: Escherichia coli CCT 1457
[11] = test system: Bacillus cereus ATCC 11778
[12] = test system: Pseudomonas aeruginosa ATCC 15422
[13] = test system: Staphylococcus aureus CCT 2580
[14] = test system: Pectobacterium carotovorum
[15] = test system: Salmonella enterica subsp. enterica serovar Typhi
[16] = test system: Lysinibacillus sphaericus TISTR 678
[17] = test system: Salmonella enterica subsp. enterica serovar Typhi ATCC 5784
Escherichia coli O157:H7 = test system: Escherichia coli O157:H7
Vibrio cholerae = test system: Vibrio cholerae
Bacillus megaterium = test system: Bacillus megaterium
[18] = test system: Acinetobacter baumannii ATCC 17978
Bacillus subtilis C626 = test system: Bacillus subtilis C626
[19] = test system: Staphylococcus aureus C622
[20] = test system: Pseudomonas aeruginosa PAO1
[21] = test system: Staphylococcus aureus 209P
[22] = test system: Streptococcus pyogenes COOK
Escherichia coli NIHJ = test system: Escherichia coli NIHJ
[23] = test system: Micrococcus luteus ATCC 9341
[24] = test system: Bacillus subtilis ATCC 6633
Candida albicans = test system: Candida albicans
[25] = test system: Staphylococcus epidermidis NRRL B-4268
Sporothrix schenckii = test system: Sporothrix schenckii
Staphylococcus aureus MR = test system: Staphylococcus aureus MR
[26] = test system: Escherichia coli ATCC 10536
[27] = test system: Trichophyton mentagrophytes
Aspergillus fumigatus = test system: Aspergillus fumigatus
[28] = test system: Staphylococcus aureus ATCC 9144
Cryptococcus neoformans = test system: Cryptococcus neoformans
[29] = test system: Pseudomonas aeruginosa ATCC BAA-427
[30] = test system: Klebsiella pneumoniae ATCC 27736
[31] = test system: Candida parapsilosis ATCC 22019

**Q.** Which MIC [1] does the source give for `CC[C@H](C)[C@H](NC(=O)[C@@H](NC(=O)[C@@H]1CCCN1C(=O)[C@@H](NC(=O)[C@@H]1CCCN1C(=O)[C@H](CCCCN)NC(=O)[C@H](CCCCN)NC(=O)[C@H](CO)NC(=O)CN)C(C)C)[C@@H](C)CC)C(=O)N[C@@H](Cc1ccc(O)cc1)C(=O)N[C@@H](CS)C(=O)N[C@@H](CC(N)=O)C(=O)N[C@@H](CCCN=C(N)N)C(=O)N[C@@H](CCCN=C(N)N)C(=O)N[C@H](C(=O)NCC(=O)N[C@@H](CCCCN)C(=O)N[C@@H](CS)C(=O)N[C@@H](CCC(N)=O)C(=O)N[C@@H](CCCN=C(N)N)C(=O)N[C@@H](CCSC)C(=O)O)[C@@H](C)O` [GSKKPVPIIYCNRRTGKCQRM] here?
**A.** 0.41 µM (≈ 1 µg/mL)

**Q.** And the MIC [2]?
**A.** 0.103 µM (≈ 0.25 µg/mL)

**Q.** What about the MIC [3] of the same compound?
**A.** 105 µM (≈ 256 µg/mL)

**Q.** And the MIC (Escherichia coli)?
**A.** 0.41 µM (≈ 1 µg/mL)

**Q.** What about the MIC [4] of the same compound?
**A.** 0.41 µM (≈ 1 µg/mL)

**Q.** And the MIC [5]?
**A.** 0.41 µM (≈ 1 µg/mL)

**Q.** What about the MIC [6] of the same compound?
**A.** 0.41 µM (≈ 1 µg/mL)

**Q.** And the MIC [7]?
**A.** 0.41 µM (≈ 1 µg/mL)

**Q.** What about the MIC [8] of the same compound?
**A.** 6.57 µM (≈ 16 µg/mL)

**Q.** And the MIC [9]?
**A.** 6.57 µM (≈ 16 µg/mL)

**Q.** Which MIC [10] does the source give for `CC[C@H](C)[C@H](N)C(=O)N[C@@H](CC(N)=O)C(=O)N[C@@H](Cc1c[nH]c2ccccc12)C(=O)N[C@@H](CCCCN)C(=O)N[C@@H](C)C(=O)N[C@@H](CC(C)C)C(=O)N[C@@H](CC(C)C)C(=O)N[C@@H](CC(=O)O)C(=O)N[C@@H](C)C(=O)N[C@@H](C)C(=O)N[C@@H](CCCCN)C(=O)N[C@@H](CCCCN)C(=O)N[C@H](C(=O)N[C@@H](CC(C)C)C(=O)O)C(C)C` [INWKALLDAAKKVL] here?
**A.** ≥ 39.5 µM

**Q.** What about the MIC [11] of the same compound?
**A.** ≥ 39.5 µM

**Q.** What about the MIC [12] of the same compound?
**A.** ≥ 316 µM

**Q.** What about the MIC [13] of the same compound?
**A.** ≥ 158 µM

**Q.** Which MIC [14] does the source give for `CC[C@H](C)[C@H](NC(=O)[C@H](CO)NC(=O)[C@H](CCCN=C(N)N)NC(=O)CNC(=O)[C@H](CCC(=O)O)NC(=O)[C@@H](N)CC(C)C)C(=O)N[C@@H](CO)C(=O)N[C@@H](CCCN=C(N)N)C(=O)N[C@H](C(=O)N[C@@H](CC(=O)O)C(=O)N[C@@H](CCC(=O)O)C(=O)N[C@@H](CC(C)C)C(=O)N[C@H](C(=O)N[C@@H](CCC(N)=O)C(=O)N[C@@H](CCC(N)=O)C(=O)N[C@@H](CCCN=C(N)N)C(=O)N[C@@H](CCC(N)=O)C(=O)N[C@@H](CCC(=O)O)C(=O)N[C@@H](CCCCN)C(=O)N[C@@H](CC(=O)O)C(=O)O)[C@@H](C)CC)[C@@H](C)CC` [LEGRSISRIDELIQQRQEKD] here?
**A.** 2.04 µM (≈ 4.92 µg/mL)

**Q.** With `CC(C)C[C@H](NC(=O)CNC(=O)[C@H](C)NC(=O)[C@H](CCCCN)NC(=O)[C@H](CCCCN)NC(=O)[C@@H](N)CC(N)=O)C(=O)N[C@@H](Cc1ccccc1)C(=O)N[C@H](C(=O)N[C@H](C(=O)N[C@@H](CCC(N)=O)C(=O)N[C@@H](Cc1ccccc1)C(=O)N1CCC[C@H]1C(=O)N[C@@H](CCCCN)C(=O)N[C@@H](CCCCN)C(=O)N[C@@H](Cc1ccc(O)cc1)C(=O)O)C(C)C)C(C)C` [NKKAGLFVVQFPKKY] as the compound, how does the MIC [15] read?
**A.** ≥ 64 µM

**Q.** And the MIC [16]?
**A.** ≥ 64 µM

**Q.** What about the MIC [17] of the same compound?
**A.** ≥ 64 µM

**Q.** What about the MIC (Escherichia coli O157:H7) of the same compound?
**A.** ≥ 64 µM

**Q.** What about the MIC (Vibrio cholerae) of the same compound?
**A.** ≥ 52 µM

**Q.** What about the MIC (Bacillus megaterium) of the same compound?
**A.** 28.3 µM (≈ 50 µg/mL)

**Q.** Which results are given for `CC[C@H](C)[C@H](NC(=O)[C@H](Cc1c[nH]c2ccccc12)NC(=O)[C@H](CCCN=C(N)N)NC(=O)[C@H](Cc1c[nH]c2ccccc12)NC(=O)[C@H](Cc1c[nH]c2ccccc12)NC(=O)[C@H](CCCCN)NC(=O)[C@@H](N)CCCN=C(N)N)C(=O)N[C@@H](CCCCN)C(=O)N[C@@H](Cc1c[nH]c2ccccc12)C(N)=O` [RKWWRWIKW]?
**A.** MIC [18]: 5 µM (≈ 7.22 µg/mL); MIC (Bacillus subtilis C626): 20 µM (≈ 28.9 µg/mL); MIC (Escherichia coli O157:H7): 1.25 µM (≈ 1.8 µg/mL); MIC [19]: 2.5 µM (≈ 3.61 µg/mL)

**Q.** Which results are given for `CC[C@H](C)[C@H](NC(=O)[C@H](CC(C)C)NC(=O)[C@H](CO)NC(=O)[C@H](Cc1ccccc1)NC(=O)[C@H](CC(C)C)NC(=O)[C@@H](N)CO)C(=O)N[C@@H](CCCCN)C(=O)N[C@@H](C)C(=O)NCC(=O)N[C@@H](C)C(=O)N[C@@H](CCCCN)C(=O)N[C@@H](Cc1ccccc1)C(=O)N[C@@H](CC(C)C)C(=O)NCC(=O)N[C@@H](CCCCN)C(=O)N[C@@H](CC(N)=O)C(=O)N[C@@H](CC(C)C)C(=O)N[C@@H](CC(C)C)C(=O)N[C@@H](CCCCN)C(=O)N[C@@H](CCC(N)=O)C(=O)NCC(=O)N[C@@H](C)C(=O)N[C@@H](CCC(N)=O)C(=O)N[C@@H](Cc1ccc(O)cc1)C(=O)N[C@@H](C)C(=O)N[C@@H](C)C(=O)N[C@H]1CSSC[C@@H](C(=O)O)NC(=O)[C@H](CCC(=O)O)NC(=O)[C@H](CCCCN)NC(=O)[C@H](CO)NC(=O)[C@H](C(C)C)NC(=O)[C@H](CCCCN)NC1=O` [SLFSLIKAGAKFLGKNLLKQGAQYAACKVSKEC]?
**A.** MIC [20]: 28.4 µM (≈ 99.9 µg/mL); MIC [21]: 1.78 µM (≈ 6.25 µg/mL); MIC [22]: 3.56 µM (≈ 12.5 µg/mL); MIC (Escherichia coli NIHJ): 3.56 µM (≈ 12.5 µg/mL); MIC [23]: 0.444 µM (≈ 1.56 µg/mL); MIC [24]: 1.78 µM (≈ 6.25 µg/mL)

**Q.** With `CC(C)C[C@H](NC(=O)[C@H](CCCCN)NC(=O)[C@H](CC(C)C)NC(=O)[C@@H](NC(=O)[C@H](CCCN=C(N)N)NC(=O)[C@H](CCCN=C(N)N)NC(=O)[C@@H](NC(=O)[C@H](Cc1c[nH]c2ccccc12)NC(=O)[C@H](CCCCN)NC(=O)[C@H](CCCN=C(N)N)NC(=O)[C@@H](NC(=O)[C@H](CCCN=C(N)N)NC(=O)[C@H](CCCN=C(N)N)NC(=O)[C@@H](N)C(C)C)C(C)C)C(C)C)C(C)C)C(=O)N[C@H](C(N)=O)C(C)C` [VRRVRKWVRRVLKLV] as the compound, how does the MIC (Candida albicans) read?
**A.** 9.6 µM (≈ 18.8 µg/mL)

**Q.** And the MIC [25]?
**A.** 6 µM (≈ 11.8 µg/mL)

**Q.** And the MIC (Sporothrix schenckii)?
**A.** 6 µM (≈ 11.8 µg/mL)

**Q.** And the MIC (Staphylococcus aureus MR)?
**A.** 12.5 µM (≈ 24.5 µg/mL)

**Q.** And the MIC [26]?
**A.** 3 µM (≈ 5.89 µg/mL)

**Q.** What about the MIC [27] of the same compound?
**A.** 6 µM (≈ 11.8 µg/mL)

**Q.** What about the MIC (Aspergillus fumigatus) of the same compound?
**A.** 8.4 µM (≈ 16.5 µg/mL)

**Q.** And the MIC [28]?
**A.** 5.1 µM (≈ 10 µg/mL)

**Q.** And the MIC (Cryptococcus neoformans)?
**A.** 8.4 µM (≈ 16.5 µg/mL)

**Q.** And the MIC [29]?
**A.** 3.2 µM (≈ 6.28 µg/mL)

**Q.** And the MIC [24]?
**A.** 6.8 µM (≈ 13.3 µg/mL)

**Q.** And the MIC [30]?
**A.** 3.2 µM (≈ 6.28 µg/mL)

**Q.** What about the MIC [31] of the same compound?
**A.** 1.5 µM (≈ 2.94 µg/mL)
